Measurements taken from patent US20230040594A1, “MILK-DERIVED POLYPEPTIDE DERIVATIVE, COMPOSITION AND METHOD FOR PREVENTING AND TREATING OBESITY” (Nanjing Maternity and Child Health Care Hospital, priority 2021, published 2023).

Assays:
UCP1 protein [1] = assay: UCP1 protein immunohistochemistry and Western blot in adipose tissues of mice with high-fat diet (Embodiment 5); type: in vivo
Procedure: (§1) C57BL/6J male mice at 6-8 weeks old were used as research subjects, and an experiment was carried out after adaptation to a SPF animal room for one week. The mice were fed with high-fat diet (with 60% of fat content) for 10 weeks to induce obesity phenotype in mice. At the same time, different drug concentrations (5 mg/kg and 10 mg/kg) were provided, and the milk-derived polypeptide derivatives corresponding to SEQ ID NO.5 were administered by intraperitoneal injection twice a week, with dissolved normal saline (Vehicle) as a control. After 10 weeks of intervention, the mice were killed, and brown fat (BAT) at scapula and inguinal subcutaneous white adipose tissues (iWAT) were taken to be fixed with a adipose tissue fixing solution (Solarbio, G2185) for 24 hours. H&E staining and a UCP1 protein immunohistochemistry study were carried out after dehydration, paraffin embedding and sectioning. The H&E staining is performed using a kit (ab245800) from Abcam, and specific steps can be found in kit instructions. Tissue sections were subjected to the immunohistochemistry study after dewaxing and antigen repairing. Specifically, the sections were incubated overnight with UCP1 antibody (1:200, Proteintech) at 4 degrees. The antibody was diluted with PBS containing 1% of BSA, and a color reaction was carried out next day with a DAB kit from Abcam. Specific operations can be referred to kit experimental steps. At the same time, total protein was extracted by a RIPA lysate, and expression of the UCP1 protein in the adipose tissues was detected by a Western blot method after quantifying, SDS-PAGE electrophoresis and transmembrane.

[2] = test system: C57BL/6J male mice fed with high-fat diet; assay: Insulin sensitivity (ITT) in mice with high-fat diet (Embodiment 3); type: in vivo
Procedure: (§2) C57BL/6J male mice at 6-8 weeks old were used as research subjects, and an experiment was carried out after adaptation to a SPF animal room for one week. The mice were fed with high-fat diet (with 60% of fat content) for 10 weeks to induce obesity phenotype in mice. At the same time, different drug concentrations (5 mg/kg and 10 mg/kg) of the milk-derived polypeptide derivatives corresponding to SEQ ID NO.5 were provided, and were administered by intraperitoneal injection twice a week, with dissolved normal saline (Vehicle) as a control.
(§3) Insulin Sensitivity: The mice are fasted overnight for 12 hours, and at a next day, insulin was injected by intraperitoneal injection at a standard of 0.75 U per kg of weight. Blood samples were taken from tail vein at 0 min, 15 min, 30 min, 60 min, 90 min and 120 min after the injection, and changes of the blood glucose in the mice were measured by a blood glucose meter to evaluate the insulin sensitivity of the mice. Glucose tolerance test: after fasting for 6 hours, the mice were injected with glucose by intraperitoneal injection at a concentration of 1 g per kg of weight. Blood samples were taken from tail vein at 0 min, 15 min, 30 min, 60 min, 90 min and 120 min after the injection, and changes of the blood glucose in the mice were measured by a blood glucose meter to evaluate the glucose tolerance of the mice.

[3] = test system: C57BL/6J male mice fed with high-fat diet; assay: Fasting blood glucose, blood lipid and insulin levels of mice with high-fat diet (Embodiment 4); type: in vivo; conditions: continuous intervention for 10 weeks; 5 and 10 mg/kg i.p. twice a week; FIG. 8
Procedure: as §2, with “resolvent” for “dissolved normal”, “control. The changes of the blood glucose in the mice were detected by a Roche blood glucose meter, and changes of blood lipid and insulin level in the mice were detected by Applygen and Millipore commercial kits respectively.” for “control.”

[4] = test system: obese C57BL/6J male mice induced by high-fat diet for six months; assay: Body weight, blood glucose and adipose tissue volume of obese model mice (Embodiment 6); type: in vivo
Procedure: C57BL/6J male mice at 6-8 weeks old were used as research subjects, and an experiment was carried out after adaptation to a SPF animal room for one week. The mice were fed with high-fat diet (with 60% of fat content) for six months to induce obesity phenotype in mice. After six months, the milk-derived polypeptide derivative shown by SEQ ID NO.5 (10 mg/kg) was administered by intraperitoneal injection once a day and continuously for 8 weeks. The mice were weighed every week for their weight changes, and at the same time, blood glucose changes of the mice were detected by a blood glucose meter. After intervention, the mice were killed, and then brown fat (BAT) at scapular, inguinal white adipose tissue (iWAT) and epididymal white adipose tissue (eWAT) were photographed. As mentioned above, H&E staining was also performed to observe morphological changes of lipid droplets, and expression of the UCP1 protein in adipose tissues was detected by immunohistochemistry and the Western blot methods.

[5] = test system: C57BL/6J male mice fed with high-fat diet; assay: Weight increasing of mice with high-fat diet (Embodiment 2); type: in vivo; conditions: 5 and 10 mg/kg i.p. twice a week
Procedure: as §2, with “mg/kg) were provided, and” for “mg/kg) of”, “NO.5” for “NO.5 were provided, and”, “control. The mice are weighed to obtain body weight and their food intake calculated every week. After the mice were killed, brown fat (BAT) at scapular, inguinal white adipose tissue (iWAT) and epididymal white adipose tissue (eWAT) were photographed, weighed to obtain wet weight and lean mass of the mice was calculated.” for “control.”

UCP1 protein [6] = assay: UCP1 protein immunohistochemistry and Western blot in adipose tissues of obese model mice (Embodiment 6); type: in vivo; conditions: 10 mg/kg i.p. once a day for 8 weeks; FIG. 13 and FIG. 14
Procedure: as §2, with “mg/kg) were provided, and” for “mg/kg) of”, “NO.5” for “NO.5 were provided, and”, “control. […] At the same time, total protein was extracted by a RIPA lysate, and expression of the UCP1 protein in the adipose tissues was detected by a Western blot method after quantifying, SDS-PAGE electrophoresis and transmembrane.” for “control.”
(§4) C57BL/6J male mice at 6-8 weeks old were used as research subjects, and an experiment was carried out after adaptation to a SPF animal room for one week. […] The mice were weighed every week for their weight changes, and at the same time, blood glucose changes of the mice were detected by a blood glucose meter. […] As mentioned above, H&E staining was also performed to observe morphological changes of lipid droplets, and expression of the UCP1 protein in adipose tissues was detected by immunohistochemistry and the Western blot methods.

[7] = test system: adipose tissues of obese model mice; assay: H&E staining of adipose tissues of obese model mice (Embodiment 6); type: in vivo; conditions: 10 mg/kg i.p. once a day for 8 weeks; FIG. 13
Procedure: as §2, with “mg/kg) were provided, and” for “mg/kg) of”, “NO.5” for “NO.5 were provided, and”, “control. […] At the same time, total protein was extracted by a RIPA lysate, and expression of the UCP1 protein in the adipose tissues was detected by a Western blot method after quantifying, SDS-PAGE electrophoresis and transmembrane.” for “control.”
as §4

[8] = test system: C57BL/6J male mice fed with high-fat diet; assay: Glucose tolerance test (GTT) in mice with high-fat diet (Embodiment 3); type: in vivo; conditions: FIG. 6
Procedure: as §2, §3

[9] = test system: brown fat (BAT) and inguinal subcutaneous white adipose tissues (iWAT); assay: H&E staining of adipose tissues of mice with high-fat diet (Embodiment 5); type: in vivo; conditions: 10 weeks; 5 and 10 mg/kg i.p. twice a week; FIG. 9
Procedure: as §1, with “Specifically, the sections were incubated overnight with UCP1 antibody (1:200, Proteintech) at 4 degrees. The antibody was diluted with PBS containing 1% of BSA, and a color reaction was carried out next day with a DAB kit from Abcam. Specific operations can be referred to kit experimental steps.” left out

[10] = previous studies; can scavenge free radicals produced in vivo; cited from earlier work
[11] = 10 mg/kg i.p. once a day for 8 weeks after six months high-fat diet, FIG. 11

GRKKRRQRRRPPQQVKEAMAPK [SEQ ID NO.5, theone tested in Embodiments 2-6]
effect on UCP1 protein content at low drug concentration (Western blot) (UCP1 protein [1]; 5 mg/Kg, FIG. 10): good effect
UCP1 immunohistochemistry brown areas in brown and white adipose tissues (UCP1 protein [1]; 10 weeks, 5 and 10 mg/kg i.p. twice a week, FIG. 9): significantly increased
contents of the UCP1 protein in brown and white adipose tissues (Western blot) (UCP1 protein [1]; 10 weeks, 5 and 10 mg/kg, certain dose-dependent relationship, FIG. 10): significantly increased
insulin sensitivity (ITT) ([2]; 5 mg/kg, FIG. 7): certain statistical significance
blood glucose levels within 2 hours after insulin injection vs control ([2]; continuous intervention for 10 weeks, 5 and 10 mg/kg, insulin 0.75 U per kg i.p.): lower than those of the control group
blood lipid (triglyceride) level [3]: significantly reduced
fasting blood glucose level [3]: significantly reduced
insulin level [3]: significantly reduced
body weight of the obese mice [4, 11]: significantly reduced
fasting blood glucose [4, 11]: decreased
tissue volumes of white fat (subcutaneous and abdominal) and brown fat (scapular areas) ([4]; 10 mg/kg i.p. once a day for 8 weeks, after dissection, FIG. 12): significantly reduced
fat content (wet weight test of the adipose tissues) ([5]; 10 weeks, FIG. 4): decreased significantly
lean mass of the mice ([5]; 10 weeks, FIG. 5): no significant change
volumes of subcutaneous and abdominal white adipose tissues ([5]; after dissection, 10 weeks, FIG. 3): decreased significantly
weight of the mice vs control group (Vehicle) ([5]; by 10th week): significantly lower
expression of UCP1 in two kinds of adipose tissues (immunohistochemistry and Western blot) (UCP1 protein [6]): increased
sizes of the lipid droplets in the two tissues (H&E staining) [7]: decreased significantly
area under the curve (GTT) ([8]; 10 mg/kg for 10 weeks): significant statistical significance
blood glucose levels within 2 hours after glucose injection vs control ([8]; continuous intervention for 10 weeks, 5 and 10 mg/kg, glucose 1 g per kg i.p.): lower than those of the control group
morphology sizes of lipid droplets in brown fat and white adipose tissues (H&E staining) [9]: significantly reduced

VKEAMAPK [Val-Lys-Glu-Ala-Met-Ala-Pro-Lys, isolated linear milk-derived polypeptide from β-casein 98-105 amino acids]
antioxidant activity [10]: antioxidant activity
